Like-named read-outs stand apart in the source and are kept apart here. Marks after values point to notes of the source that are not given here.
Legend:
C57BL/6J mice [1] = tested on: C57BL/6J mice; parameters: method as in Mohan et al., 2021; conditions: ref Mohan et al., 2021, cited from earlier work
C57BL/6J mice [2] = test: DTG-NTD susceptibility, embryo phenotyping on GD 9.5, C57BL/6J dams; assay type: in vivo, mouse
Source text: (§1) Breeding colonies and experimental mice were housed in Thoren micro-isolator cages with autoclaved corncob bedding and maintained on a 12-h light-dark cycle in climate-controlled AAALAC-accredited animal facilities at Creighton University. Mice were given ad libitum access to autoclaved water and pelleted irradiated rodent chow. For timed matings, nulliparous female mice were placed with a male overnight (1 male:2-3 females). The presence of a vaginal plug the next morning was considered GD 0.5. Plugged females were weighed, placed into a separate cage, and randomly assigned to a treatment group. All animal procedures were performed in accordance with the Public Health Service (PHS) policy on Humane Care and Use of Laboratory Animals and approved by the Creighton University Institutional Animal Care and Use Committee (IACUC).
(§2) Dolutegravir (CAS 1051375-16-6, GSK1349572) was purchased from MedKoo Biosciences (Morrisville, NC). Pregnant mice were dosed with vehicle (dimethylsulfoxide: Solutol®: 50 mM N-methylglucamine in 3% mannitol [1:1:8, v:w:v]) ([Moss et al., 2015]) or DTG (500 mg/kg or 750 mg/kg) by daily oral gavage beginning on GD 0.5 and continuing until the day of sacrifice (GD 9.5). All treatments were administered in a volume of 0.1 mL/10 g bodyweight (bwt).
(§3) The SWV and LM/Bc breeding colonies have been maintained on Envigo Rodent Chow #8904 (a soy protein-based irradiated diet) for >20 years. C3H/HeJ and C57BL/6J mice (6–10 weeks old) were immediately placed on Envigo #8904 upon arrival at Creighton University and were maintained on this diet for a minimum of 1 month prior to analysis of basal plasma and urine cations. The National Research Council (NRC) estimate for the minimum Mg^2+ requirement in adult mice is […] of diet (0.05%). Magnesium in standard rodent diets ranges between […]; the Envigo #8904 soy diet contains .3% Mg^2+ by weight ([…] the NRC requirement) and was therefore considered a ‘high’ Mg^2+ diet. Sources of Mg^2+ in the soy diet include magnesium oxide (∼20%) and Mg^2+ found naturally in grain ingredients (∼80%); it was therefore not possible to remove Mg^2+ to create a soy-based version that was Mg^2+ deficient. To test the hypothesis that low maternal plasma Mg^2+ prior to conception would increase susceptibility to DTG-induced NTDs, it was necessary to switch to casein-based purified ingredient diets with defined levels of Mg^2+ added back. The following casein-based purified ingredient diets were selected as experimental diets: TD.120,574 high Mg^2+ diet (.3% Mg^2+ oxide added to match the .3% high Mg^2+ soy-based diet); TD.98341 control Mg^2+ diet with 0.05% Mg oxide added back to match the NRC requirement; and TD.93106 Mg^2+-deficient diet (<.003%, no Mg^2+ added back). The purified casein diets met or exceeded the NRC requirements for all other minerals and vitamins, including folic acid (Supplementary Table S1: Diet Comparison). Thus, the 4 experimental diets were as follows: 1) high Mg^2+ (.3%) soy diet; 2) high Mg^2+ ([…]) casein diet; 3) control Mg^2+ (.05%) casein diet; and 4) deficient Mg^2+ (<.003%) casein diet. […] Our initial DTG teratology studies were performed in mice on the high Mg^2+ soy diet. However, our objective in the second set of experiments was to reduce pre-conception plasma Mg^2+ levels prior to DTG exposure. To accomplish this objective, weaned female mice were placed on either the high Mg^2+ casein diet or one of the 2 casein-based experimental diets with reduced Mg^2+ (control or deficient) for a minimum of 2 weeks. After this minimum period of acclimation to the experimental casein-based diets, blood and urine samples were collected for Inductively Coupled Plasma Mass Spectrometry (ICP-MS) determination of Mg^2+ (and other cations).
(§4) Pregnant dams were anesthetized with isoflurane and sacrificed by cervical dislocation on GD 9.5. […]

LM/Bc mice = test: DTG-NTD susceptibility, embryo phenotyping on GD 9.5, LM/Bc dams; assay type: in vivo, mouse
Source text: as §1, §2, §3, §4

SWV mice = test: DTG-NTD susceptibility, embryo phenotyping on GD 9.5, SWV dams; assay type: in vivo, mouse
Source text: as §1, §2, §3, §4

Whole rat embryos = tested on: Whole rat embryos; parameters: method as in Posobiec et al., 2021; conditions: exposure GD 9-11; concentrations approx. 2 times plasma concentration at MRHD; ref Posobiec et al., 2021; cited from earlier work
FOLR1 = tested on: FOLR1; parameters: method as in Cabrera et al., 2019; conditions: human placental trophoblast cells; ref Cabrera et al., 2019; cited from earlier work
[3] = high Mg2+ (0.3%) soy diet, DTG 750 mg/kg/d oral GD 0.5-GD 9.5
[4] = high Mg2+ (0.3%) soy diet, DTG 750 mg/kg/d oral GD 0.5-GD 9.5, average % (SD)
[5] = high Mg2+ (0.3%) soy diet, DTG 750 mg/kg/d oral GD 0.5-GD 9.5, mean (SD)
[6] = high Mg2+ (0.3%) soy diet, DTG 750 mg/kg/d oral GD 0.5-GD 9.5, mean (SD) per litter
[7] = control Mg2+ (0.05%) casein diet, DTG500
[8] = control Mg2+ (0.05%) casein diet, DTG750
[9] = high Mg2+ (0.3%) casein diet, DTG750
[10] = high Mg2+ soy diet, DTG500, n = 7 litters
[11] = Mg2+-deficient (<0.003%) casein diet, DTG750

In the case of `C[C@@H]1CCO[C@H]2Cn3cc(C(=O)NCc4ccc(F)cc4F)c(=O)c(O)c3C(=O)N12` [DTG, Dolutegravir], the NTD-affected litters (C57BL/6J mice [1]; 2.5 mg/kg/d oral DTG co-formulated with TDF and FTC from GD 0.5, folate-sufficient diet, 5/150 litters) is given as 3.3%, the NTDs observed (C57BL/6J mice [1]; 5x higher dose, n = 111 litters) is given as “no NTDs were observed” and the Affected litters % (C57BL/6J mice [2]; [3]) is given as 0.0%. For the same compound, the “Dev delay/implants, index value” (C57BL/6J mice [2]; [4]) was 1.9% (4.15), the “NTDs/embryos, index value” (C57BL/6J mice [2]; [4]) was 0.0% (0.00) and the “NTDs/implants, index value” (C57BL/6J mice [2]; [4]) was 0.0% (0.00). For the same compound, the “Resorptions/implants, index value” (C57BL/6J mice [2]; [4]) was 5.3% (9.30), the Implants per litter (C57BL/6J mice [2]; [5]) was 9.80 (1.48) and the Resorptions per litter (C57BL/6J mice [2]; [5]) was 0.50 (0.85). The Dev. delayed (C57BL/6J mice [2]; [6]) was 0.20 (0.42), the NTDs (C57BL/6J mice [2]; [6]) was 0.00 (0.00) and the Total viable embryos (C57BL/6J mice [2]; [6]) was 9.30 (1.77). The NTDs observed (C57BL/6J mice [2]; high Mg2+ soy diet, DTG750, n = 10 litters) was “No NTDs”, the NTD-affected litters (LM/Bc mice; [7]) was 62% and the “NTD-affected litters / litters examined” value (LM/Bc mice; [7]) was 8/13. The “exencephalic embryos per litter” value (LM/Bc mice; [7]) was 1 to 5, the “total NTDs” value (LM/Bc mice; control Mg2+ (0.05%) casein diet, DTG500, of 116 implants) was 19 and the NTD-affected litters (LM/Bc mice; [8]) was 85%. The “NTD-affected litters / litters examined” value (LM/Bc mice; [8]) was 11/13, the “exencephalic embryos per litter” value (LM/Bc mice; [8]) was 1 to 6 and the “total NTDs” value (LM/Bc mice; control Mg2+ (0.05%) casein diet, DTG750, of 105 implants) was 33. The NTD-affected litters (LM/Bc mice; [9]) was 19%, the “exencephalic embryos per affected litter” value (LM/Bc mice; [9]) was 1 and the “mean rate NTDs/litter” value (LM/Bc mice; [9]) was 2%. For the same compound, the “NTD-affected litters / litters examined” value (LM/Bc mice; high Mg2+ (0.3%) casein diet, DTG750, 90 implants total) was 3/16, the “Dev delay/implants, index value” (LM/Bc mice; [4]) was 8.1% (17.76) and the “NTDs/embryos, index value” (LM/Bc mice; [4]) was 20.9% (23.65)^**. For the same compound, the “NTDs/implants, index value” (LM/Bc mice; [4]) was 17.7% (20.63)^**, the “Resorptions/implants, index value” (LM/Bc mice; [4]) was 11.5% (15.75) and the Implants per litter (LM/Bc mice; [5]) was 8.74 (2.47). The Resorptions per litter (LM/Bc mice; [5]) was 0.95 (1.27), the Dev. delayed (LM/Bc mice; [6]) was 0.58 (0.96) and the NTDs (LM/Bc mice; [6]) was 1.47 (1.74)^**. The Total viable embryos (LM/Bc mice; [6]) was 7.79 (2.76), the NTDs observed (LM/Bc mice; high Mg2+ soy diet, DTG 500 mg/kg/d (DTG500), n = 7 litters) was “No NTDs” and the developmental delays (LM/Bc mice; [10]) was “no developmental delays”. For the same compound, the “implants (total)” value (LM/Bc mice; [10]) was 71, the “resorptions (total)” value (LM/Bc mice; [10]) was 9 and the “viable embryos developmentally normal (total)” value (LM/Bc mice; [10]) was 62. For the same compound, the “NTD-affected litters / litters examined” value (LM/Bc mice; high Mg2+ soy diet, DTG750) was 12/19, the NTDs/affected litter (LM/Bc mice; high Mg2+ soy diet, DTG750) was 1–6 and the “total pups with exencephaly” value (LM/Bc mice; high Mg2+ soy diet, DTG750, out of 166 total implants) was 28. For the same compound, the NTD-affected litters (SWV mice; [11]) was 75%, the “NTD-affected litters / litters examined” value (SWV mice; [11]) was 6/8 and the “NTDs per affected litter” value (SWV mice; [11]) was 1-4. The “total NTDs” value (SWV mice; [11]) was 11, the Affected litters % (SWV mice; [3]) was 7.7% and the “Dev delay/implants, index value” (SWV mice; [4]) was 2.0% (3.19). The “NTDs/embryos, index value” (SWV mice; [4]) was 1.8% (6.40), the “NTDs/implants, index value” (SWV mice; [4]) was 1.6% (5.94) and the “Resorptions/implants, index value” (SWV mice; [4]) was 5.0% (7.62). For the same compound, the Implants per litter (SWV mice; [5]) was 13.15 (2.12)^**, the Resorptions per litter (SWV mice; [5]) was 0.62 (0.87) and the Dev. delayed (SWV mice; [6]) was 0.31 (0.48). The NTDs (SWV mice; [6]) was 0.23 (0.83), the Total viable embryos (SWV mice; [6]) was 12.54 (2.37)^** and the “NTD-affected litters / litters examined” value (SWV mice; high Mg2+ soy diet, DTG750) was 1/13. The “total pups with exencephaly” value (SWV mice; high Mg2+ soy diet, DTG750) was 3, the “developmental toxicity or NTDs” value (Whole rat embryos) was “no developmental toxicity or NTDs were observed” and the “FOLR1-mediated uptake of folic acid” value (FOLR1) was “partially inhibited”.

From paper PMC10292217, “Gene-nutrient interactions that impact magnesium homeostasis increase risk for neural tube defects in mice exposed to dolutegravir” (Frontiers in Cell and Developmental Biology, 2023)
